Experimental data: ChEMBL document CHEMBL3994662, “In vivo instability of platensimycin and platencin: Synthesis and biological evaluation of urea- and carbamate-platensimycin” (Bioorg Med Chem, 2017); call rule not given here
≈ marks a conversion by molar mass, not a printed value.

Key:
[1] = In vivo stability in C57Bl/6 mouse adipose tissue assessed as compound hydrolysis at 10 mg/kg, iv administered as single dose measured after 60 mins by LC-MS/MS analysis; format: ADME, organism-based; details: 1 h
[2] = Ratio of drug level in C57Bl/6 mouse kidney to plasma at 10 mg/kg, iv administered as single dose measured after 60 mins by LC-MS/MS analysis; format: ADME, organism-based
[3] = system: Liver; experiment: In vivo stability in C57Bl/6 mouse liver assessed as compound hydrolysis by measuring platensic acid level at 10 mg/kg, iv administered as single dose measured after 60 mins by LC-MS/MS analysis relative to platensimycin; format: ADME, organism-based; details: 1 h
[4] = system: Kidney; experiment: In vivo stability in C57Bl/6 mouse kidney assessed as compound hydrolysis by measuring platensic acid level at 10 mg/kg, iv administered as single dose measured after 60 mins by LC-MS/MS analysis relative to platensimycin; format: ADME, organism-based; details: 1 h
[5] = system: Kidney; experiment: Drug uptake in C57Bl/6 mouse kidney at 10 mg/kg, iv administered as single dose measured after 60 mins by LC-MS/MS analysis; format: ADME, organism-based; details: in vivo, 1 h
[6] = In vivo stability in C57Bl/6 mouse urine assessed as compound hydrolysis at 10 mg/kg, iv administered as single dose measured after 60 mins by LC-MS/MS analysis; format: ADME, organism-based; details: 1 h
[7] = system: Liver; experiment: Drug uptake in C57Bl/6 mouse liver at 10 mg/kg, iv administered as single dose measured after 60 mins by LC-MS/MS analysis; format: ADME, organism-based; details: in vivo, 1 h
[8] = system: Plasma; experiment: In vivo stability in C57Bl/6 mouse plasma assessed as compound hydrolysis by measuring platensic acid level at 10 mg/kg, iv administered as single dose measured after 60 mins by LC-MS/MS analysis relative to platensimycin; format: ADME, organism-based; details: 1 h
[9] = Apparent permeability by PAMPA; format: physicochemical
[10] = Drug metabolism in mouse hepatic microsomes assessed as glucuronidation of carboxylic acid at 1 uM up to 60 mins in absence of NADPH by LC-MS/MS analysis; format: ADME, Liver, Microsome; details: 1 h
[11] = Elimination half life in C57Bl/6 mouse at 10 mg/kg, po administered as single dose via gavage by LC-MS/MS analysis; format: ADME, organism-based; details: in vivo, read-out: beta t1/2 (converted)
[12] = Cmax in C57Bl/6 mouse at 3 mg/kg, iv administered as single dose by LC-MS/MS analysis; format: ADME, organism-based; design: dose 3 mg/kg, route intravenous; details: in vivo
[13] = Oral bioavailability in C57Bl/6 mouse at 10 mg/kg administered as single dose via gavage by LC-MS/MS analysis; format: ADME, organism-based; details: in vivo
[14] = Ratio of drug level in C57Bl/6 mouse urine to plasma at 10 mg/kg, iv administered as single dose measured after 60 mins by LC-MS/MS analysis; format: ADME, organism-based; details: in vivo, 1 h
[15] = Drug uptake in C57Bl/6 mouse adipose tissue at 10 mg/kg, iv administered as single dose measured after 60 mins by LC-MS/MS analysis; format: ADME, organism-based; details: in vivo, 1 h
[16] = Volume of distribution in C57Bl/6 mouse at 3 mg/kg, iv administered as single dose by LC-MS/MS analysis; format: ADME, organism-based; details: in vivo
[17] = Drug uptake in C57Bl/6 mouse muscle at 10 mg/kg, iv administered as single dose measured after 60 mins by LC-MS/MS analysis; format: ADME, organism-based, Muscle tissue; details: in vivo, 1 h
[18] = Plasma concentration in C57Bl/6 mouse at 3 mg/kg, iv administered as single dose measured after 2 hrs by LC-MS/MS analysis; format: ADME, organism-based
[19] = system: Lung; experiment: In vivo stability in C57Bl/6 mouse lung assessed as compound hydrolysis at 10 mg/kg, iv administered as single dose measured after 60 mins by LC-MS/MS analysis; format: ADME, organism-based; details: 1 h
[20] = Ratio of drug level in C57Bl/6 mouse lung to plasma at 10 mg/kg, iv administered as single dose measured after 60 mins by LC-MS/MS analysis; format: ADME, organism-based
[21] = Cmax in C57Bl/6 mouse at 10 mg/kg, po administered as single dose via gavage by LC-MS/MS analysis; format: ADME, organism-based; design: dose 10 mg/kg, route oral; details: in vivo
[22] = Drug metabolism in mouse hepatic microsomes assessed as amide hydrolysis-mediated platensic acid formation at 1 uM up to 60 mins in absence of NADPH by LC-MS/MS analysis; format: ADME, Liver, Microsome; details: 1 h
[23] = system: Mus musculus; experiment: AUC (0 to 8 hrs) in C57Bl/6 mouse at 3 mg/kg, iv administered as single dose by LC-MS/MS analysis; format: ADME, organism-based; design: dose 3 mg/kg, time < 8 hr, route intravenous; details: in vivo
[24] = Intrinsic clearance in mouse hepatic microsomes at 1 uM up to 60 mins by LC-MS/MS analysis; format: ADME, Microsome; details: liver microsomes, read-out: CLH
[25] = system: Brain; experiment: Drug uptake in C57Bl/6 mouse brain at 10 mg/kg, iv administered as single dose measured after 60 mins by LC-MS/MS analysis; format: ADME, organism-based; details: in vivo, 1 h
[26] = Observed clearance in C57Bl/6 mouse at 3 mg/kg, iv administered as single dose by LC-MS/MS analysis; format: ADME, organism-based; details: in vivo
[27] = Drug metabolism in mouse hepatic microsomes assessed as hydroxylation at 1 uM up to 60 mins in absence of NADPH by LC-MS/MS analysis; format: ADME, Liver, Microsome; details: 1 h
[28] = Ratio of drug level in C57Bl/6 mouse adipose tissue to plasma at 10 mg/kg, iv administered as single dose measured after 60 mins by LC-MS/MS analysis; format: ADME, organism-based
[29] = system: Kidney; experiment: In vivo stability in C57Bl/6 mouse kidney assessed as compound hydrolysis at 10 mg/kg, iv administered as single dose measured after 60 mins by LC-MS/MS analysis; format: ADME, organism-based; details: 1 h
[30] = In vivo stability in C57Bl/6 mouse urine assessed as compound hydrolysis by measuring platensic acid level at 10 mg/kg, iv administered as single dose measured after 60 mins by LC-MS/MS analysis relative to platensimycin; format: ADME, organism-based; details: 1 h
[31] = system: Plasma; experiment: Drug uptake in C57Bl/6 mouse plasma at 10 mg/kg, iv administered as single dose measured after 60 mins by LC-MS/MS analysis; format: ADME, organism-based; details: in vivo, 1 h
[32] = system: Mus musculus; experiment: AUC (0 to 8 hrs) in C57Bl/6 mouse at 10 mg/kg, po administered as single dose via gavage by LC-MS/MS analysis; format: ADME, organism-based; design: time < 8 hr, dose 10 mg/kg, route oral; details: in vivo
[33] = Drug metabolism in mouse hepatic microsomes assessed as amide hydrolysis-mediated platensic acid formation at 1 uM up to 60 mins in presence of NADPH by LC-MS/MS analysis; format: ADME, Liver, Microsome; details: 1 h
[34] = system: Plasma; experiment: In vivo stability in C57Bl/6 mouse plasma assessed as compound hydrolysis at 10 mg/kg, iv administered as single dose measured after 60 mins by LC-MS/MS analysis; format: ADME, organism-based; details: 1 h
[35] = Elimination half life in C57Bl/6 mouse at 3 mg/kg, iv administered as single dose by LC-MS/MS analysis; format: ADME, organism-based; details: in vivo, read-out: beta t1/2 (converted)
[36] = Ratio of drug level in C57Bl/6 mouse muscle to plasma at 10 mg/kg, iv administered as single dose measured after 60 mins by LC-MS/MS analysis; format: ADME, organism-based, Muscle tissue/plasma
[37] = system: Liver; experiment: In vivo stability in C57Bl/6 mouse liver assessed as compound hydrolysis at 10 mg/kg, iv administered as single dose measured after 60 mins by LC-MS/MS analysis; format: ADME, organism-based; details: 1 h
[38] = In vivo stability in C57Bl/6 mouse muscle assessed as compound hydrolysis at 10 mg/kg, iv administered as single dose measured after 60 mins by LC-MS/MS analysis; format: ADME, organism-based, Muscle tissue; details: 1 h
[39] = system: Staphylococcus aureus; experiment: Antibacterial activity against Staphylococcus aureus ATCC 25923 after 18 hrs by broth dilution method; format: functional; details: ATCC 25923, 18 h
[40] = system: Micrococcus luteus; experiment: Antibacterial activity against Micrococcus luteus ATCC 9431 after 18 hrs by broth dilution method; format: functional; details: ATCC 9431, 18 h
[41] = system: Brain; experiment: In vivo stability in C57Bl/6 mouse brain assessed as compound hydrolysis at 10 mg/kg, iv administered as single dose measured after 60 mins by LC-MS/MS analysis; format: ADME, organism-based; details: 1 h
[42] = system: Lung; experiment: Drug uptake in C57Bl/6 mouse lung at 10 mg/kg, iv administered as single dose measured after 60 mins by LC-MS/MS analysis; format: ADME, organism-based; details: in vivo, 1 h
[43] = Ratio of drug level in C57Bl/6 mouse liver to plasma at 10 mg/kg, iv administered as single dose measured after 60 mins by LC-MS/MS analysis; format: ADME, organism-based
[44] = Drug level in C57Bl/6 mouse urine at 10 mg/kg, iv administered as single dose measured after 60 mins by LC-MS/MS analysis; format: ADME, organism-based; details: mouse, in vivo, 1 h

In the case of `C[C@]12C[C@@]34C=CC(=O)[C@@](C)(CCC(=O)Nc5c(O)ccc(C(=O)O)c5O)[C@@H]3[C@H](C[C@@H]1C4)O2`, the Stability [1] is reported as “Stable”, the Kp at 1 h [2] is reported as 0.5 and the “fold change (FC)” value [3] is reported as 0.04. The “fold change (FC)” value [4] was 0.2, the Drug uptake [5] was “Active” and the Stability [6] was “Unstable”. For the same molecule, the Drug uptake [7] was “Active”, the “fold change (FC)” value [8] was 0.1 and the Papp [9] was 1.3 ×10⁻⁷ cm/s. The Drug metabolism [10] was “Metabolite_Detected”, the half-life [11] was 3.2 h and the Cmax [12] was 20000 nM. The bioavailability [13] was 4.4%, the Ratio [14] was 3790 and the Drug uptake [15] was “Active”. For the same molecule, the Vd [16] was 0.9 L/kg, the Drug uptake [17] was “Active” and the concentration at 2 h [18] was 10 nM. For the same molecule, the Stability [19] was “Stable”, the Kp at 1 h [20] was 0.5 and the Cmax [21] was 2100 nM. The Drug metabolism [22] was “Metabolite_Detected”, the AUC [23] was 10 µM·h and the microsomal CLint at 1 µM [24] was 13.6 µL/min/mg. The Drug uptake [25] was “Not Active”, the clearance [26] was 16 mL/min/kg and the Drug metabolism [27] was “Metabolite_Detected”. The Kp at 1 h [28] was 0.1, the Stability [29] was “Unstable” and the “fold change (FC)” value [30] was 0.0005. The Drug uptake [31] was “Active”, the AUC [32] was 1.5 µM·h and the Drug metabolism [33] was “Metabolite_Detected”. For the same molecule, the Stability [34] was “Unstable”, the half-life [35] was 3.5 h and the Kp at 1 h [36] was 0.1. The Stability [37] was “Unstable”, the Stability [38] was “Stable” and the MIC [39] was 0.5 µg/mL (≈ 1.13 µM). The MIC [40] was 0.5 µg/mL (≈ 1.13 µM), the Stability [41] was “Stable” and the Drug uptake [42] was “Active”. The Kp at 1 h [43] was 6.2 and the Drug uptake [44] was “Active”.
